Assay results published in publication PMC12369479 (Journal of Experimental Botany, 2025).

Tests used:
ZmADK2 = ZmADK2 (Zea mays, UniProt B4FFH8, T4S); experiment: Binding affinity by microscale thermophoresis (MST); settings: MST, 50 mM HEPES pH 7.5, 1 mM MgCl2, first or only binding event, read-out: KD
Procedure: (§1) The microscale thermophoresis (MST) method was used to determine the binding affinity of various ribosides for ZmADK2 and PpADK1. Proteins were fluorescently labeled with RED-tris-NTA dye (www.nanotemper-technologies.com) using a 1:1 dye/protein molar ratio. The labeled protein was adjusted to 100–300 nM in 50 mM HEPES buffer pH 7.5, 1 mM MgCl2, and 0.2% Tween. Measurements were performed in premium capillaries on a Monolith NT.115 instrument at 30 °C with 5 s/30 s/5 s laser off/on/off times, respectively, with continuous sample fluorescence recording. Thermal stability was measured by nano-differential scanning fluorimetry on a Prometheus NT.48 instrument (www.nanotemper-technologies.com) in various buffers covering a pH (7.0–9.5) and temperature range (25–95 °C), with a heating rate of 1 °C min^–1, and using NT melting control software. Protein unfolding was measured by detecting the temperature-induced change in tryptophan fluorescence intensity at emission wavelengths of 330±5 nm and 350±5 nm. The melting temperature (Tm) was deduced from the maximum of the first derivative of the fluorescence ratios F350/F330.

PpADK1 = molecular target: T1, PpADK1 (Physcomitrium patens, UniProt O49923); experiment: as above; parameters: species or system Physcomitrella patens; settings: 50 mM HEPES pH 7.5, 1 mM MgCl2, read-out: KD
T1 construct: made in house; host or cells: E. coli T7 Express Iq
T1 sequence (O49923 whole entry): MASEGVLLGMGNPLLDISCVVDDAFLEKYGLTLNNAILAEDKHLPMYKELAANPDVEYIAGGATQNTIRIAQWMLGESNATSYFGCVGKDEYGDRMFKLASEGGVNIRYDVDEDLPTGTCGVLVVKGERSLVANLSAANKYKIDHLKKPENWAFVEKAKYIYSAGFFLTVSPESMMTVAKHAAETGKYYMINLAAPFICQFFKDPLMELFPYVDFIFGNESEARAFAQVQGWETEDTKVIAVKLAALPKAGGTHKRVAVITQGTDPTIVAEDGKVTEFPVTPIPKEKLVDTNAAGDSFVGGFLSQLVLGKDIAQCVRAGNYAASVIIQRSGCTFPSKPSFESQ
Procedure: as §1

WT ZmADK3 = WT ZmADK3 (Zea mays, UniProt A0A1D6E5Z5); experiment: Binding affinity by MST; settings: read-out: KD ATP
Sequence of WT ZmADK3 (A0A1D6E5Z5 2-344): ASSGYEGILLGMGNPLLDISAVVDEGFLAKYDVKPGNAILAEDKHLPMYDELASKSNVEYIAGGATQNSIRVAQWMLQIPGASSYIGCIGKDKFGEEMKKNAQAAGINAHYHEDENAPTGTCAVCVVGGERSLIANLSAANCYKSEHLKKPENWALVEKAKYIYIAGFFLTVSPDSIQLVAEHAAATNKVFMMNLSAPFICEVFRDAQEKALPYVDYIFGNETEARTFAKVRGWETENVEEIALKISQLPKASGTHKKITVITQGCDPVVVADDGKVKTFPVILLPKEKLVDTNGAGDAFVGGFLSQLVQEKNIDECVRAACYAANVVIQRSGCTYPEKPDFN

ZmADK3 D19A variant = ZmADK3 D19A variant (Zea mays, UniProt A0A1D6E5Z5, D19A); experiment: Binding affinity by MST; settings: D19A; MST; read-out: KD ATP
Sequence of ZmADK3 D19A variant (A0A1D6E5Z5 entry or part of it D19A): as the sequence (A0A1D6E5Z5 2-344) above, with D18A counted along it
Procedure: (§2) All ZmADK3 mutants were cloned by 30 cycle PCRs using tail-to-tail oriented phosphorylated primers, with the mutation being located at the 5′ end of one of the primers. The following mutants were cloned using the primers given in Supplementary Table S1: D19A, R132A, N222A, E225A, N295A, and D299A. The products were treated with DpnI restriction enzyme, gel purified, and ligated using T4 DNA ligase (www.thermofisher.com). Clones were transformed into T7 express I^qE. coli competent cells.
as §1

ZmADK3 D299A variant = ZmADK3 D299A variant (Zea mays, UniProt A0A1D6E5Z5, D299A); experiment: Binding affinity by MST; settings: D299A; MST; read-out: KD ATP
Sequence of ZmADK3 D299A variant (A0A1D6E5Z5 entry or part of it D299A): as the sequence (A0A1D6E5Z5 2-344) above, with D298A counted along it
Procedure: as §2, §1

ZmADK3 E225A variant = ZmADK3 E225A variant (Zea mays, UniProt A0A1D6E5Z5, E225A); experiment: Binding affinity by MST
Sequence of ZmADK3 E225A variant (A0A1D6E5Z5 entry or part of it E225A): as the sequence (A0A1D6E5Z5 2-344) above, with E224A counted along it
Procedure: as §2, §1

ZmADK3 N222A variant = ZmADK3 N222A variant (Zea mays, UniProt A0A1D6E5Z5, N222A); experiment: Binding affinity by MST
Sequence of ZmADK3 N222A variant (A0A1D6E5Z5 entry or part of it N222A): as the sequence (A0A1D6E5Z5 2-344) above, with N221A counted along it
Procedure: as §2, §1

ZmADK3 N295A variant = ZmADK3 N295A variant (Zea mays, UniProt A0A1D6E5Z5, N295A); experiment: Binding affinity by MST; settings: N295A; MST; read-out: KD ATP
Sequence of ZmADK3 N295A variant (A0A1D6E5Z5 entry or part of it N295A): as the sequence (A0A1D6E5Z5 2-344) above, with N294A counted along it
Procedure: as §2, §1

ZmADK3 R132A variant = ZmADK3 R132A variant (Zea mays, UniProt A0A1D6E5Z5, R132A); experiment: Binding affinity by MST; settings: R132A; MST; read-out: KD ATP
Sequence of ZmADK3 R132A variant (A0A1D6E5Z5 entry or part of it R132A): as the sequence (A0A1D6E5Z5 2-344) above, with R131A counted along it
Procedure: as §2, §1

five plant ADKs = experiment: Thermal stability by nanoDSF; parameters: species or system Zea mays, Physcomitrella patens; settings: all isoforms, ATP complexes at 4 mM
Procedure: as §1
Supplementary Fig. S1. Thermal stability, molecular and kinetic properties of ZmADK2. (A)
Thermal stability of five plant ADKs measured by nanoDSF. The curves for apoforms (in 150 mM
HEPES pH 7.2, 100 mM NaCl, 10 mM MgCl2) and ATP complexes at 4 mM concentrations are shown. […]

[1] = system: plant ADKs from lupin and Arabidopsis; parameters: method as in Guranowski, 1979; Moffatt et al., 2000; settings: ref Guranowski, 1979, Moffatt et al., 2000, read-out: Km for ATP; cited from earlier work

Sequence of ZmADK2 (B4FFH8 1-342 T4S): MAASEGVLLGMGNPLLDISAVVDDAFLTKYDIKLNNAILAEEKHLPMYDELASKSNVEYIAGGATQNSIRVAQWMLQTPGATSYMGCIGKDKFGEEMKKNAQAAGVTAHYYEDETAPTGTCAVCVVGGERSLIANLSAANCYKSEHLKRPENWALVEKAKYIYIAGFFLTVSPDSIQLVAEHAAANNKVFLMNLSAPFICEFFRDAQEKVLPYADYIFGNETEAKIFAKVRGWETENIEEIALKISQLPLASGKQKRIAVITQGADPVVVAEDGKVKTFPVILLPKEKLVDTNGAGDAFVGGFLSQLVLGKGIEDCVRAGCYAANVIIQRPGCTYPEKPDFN

Q: For `Nc1ncnc2c1ncn2[C@@H]1O[C@H](COP(=O)(O)OP(=O)(O)OP(=O)(O)O)[C@@H](O)[C@H]1O` [ATP], which Kd (ZmADK2) is on record?
A: 2.2 ± 0.62 mM

Q: And the Kd (PpADK1)?
A: 2.9 ± 0.7 mM

Q: What about the Kd (WT ZmADK3) of the same molecule?
A: 2.9 ± 1.1 mM

Q: And the Kd (ZmADK3 D19A variant)?
A: 4.9 ± 1.5 mM

Q: And the Kd (ZmADK3 D299A variant)?
A: 9.1 ± 2.1 mM

Q: And the “lower affinity for ATP compared with the WT” value (ZmADK3 E225A variant; E225A variant of ZmADK3)?
A: ~ 6 fold

Q: What about the Kd (ZmADK3 E225A variant; E225A, MST, read-out: KD ATP) of the same molecule?
A: 16 ± 4.5 mM

Q: And the “lower affinity for ATP compared with the WT” value (ZmADK3 N222A variant; N222A variant of ZmADK3)?
A: 7 fold

Q: What about the Kd (ZmADK3 N222A variant; N222A, MST, read-out: KD ATP) of the same molecule?
A: 20.7 ± 4.4 mM

Q: And the Kd (ZmADK3 N295A variant)?
A: 41.8 ± 10 mM

Q: What about the Kd (ZmADK3 R132A variant) of the same molecule?
A: 8.5 ± 2.1 mM

Q: And the “stabilizing effect on melting temperature (Tm)” value (five plant ADKs)?
A: up to 4 °C

Q: And the Km [1]?
A: 300 to 400 µM
